Experimental data as given in patent US20110201869A1, “METHOD AND APPARATUS FOR ENHANCED TRANSDERMAL DIFFUSION” (OBJ LIMITED, priority 2008, published 2011).
Blank lines part the entries; values can stand above or below the compound they belong to.

Key:
[1] = Methyl Nicotinate Laser-Doppler vasodilation model (transdermal delivery in vivo); parameters: species or system human
Excerpt: FIG. 7 depicts the enhancing effects of the present invention on the delivery of Methyl Nicotinate through human skin in vivo. The Methyl Nicotinate Laser-Doppler vasodilation model was used (see Hollaway et al, J. Invest Dermatol 69:306-309, 1977; Wester et al., J. Invest Dermatol 83:515-517, 1984). […] In short, successful transdermal delivery of the rubifacient Methyl Nicotinate through the skin results in pronounced vasodilation, increased perfusion and erythema. […] The Methyl Nicotinate induced vasodilation can be measured using a non-invasive Laser Doppler Flow or Perfusion meter with data being provided as a numeric value equitable to local in vivo blood perfusion. The present experiment involved the saturation of 4 cm^2 tissue paper units with Methyl Nicotinate (5 mmolar in PBS). The Methyl Nicotinate tissues were applied to the skin of the volar forearm. The present invention (4 cm^2) and the passive surrogate units were placed over the Methyl Nicotinate soaked paper units. For 5 minutes one active and one passive unit were applied adjacently onto the skin of the forearm. Subsequently, all materials were removed from the skin and the skin was patted dry. Laser Doppler perfusion probes (Moor Instruments Laser Doppler Perfusion Meter) were placed over both areas and blood perfusion rates were monitored for a 30 minute period. […]

[2] = in vitro Franz Cell diffusion study through excised epidermis; type: in vitro ADME, piglet
Method: FIG. 4 is a plot of the substance Tetracaine through excised piglet ear epidermis in an in vitro Franz Cell diffusion study. Epidermal membranes were obtained by heat separation (60 sec at 60° C., Kligman and Christophers 1963). Skin integrity was determined by conductance measurement before the experiment. Skin sections from each ear were matched over the groups per experiment. Epidermal membranes were placed between the donor and receptor compartments of Franz-type diffusion cells with the stratum corneum facing the donor chamber. The epidermal membranes were equilibrated with the receptor solution (USP PBS, pH 7.4) for 30 min. The receptor compartment of the cell was immersed in a water bath at 37±0.5° C., and stirred every 5 min throughout the experiment. After equilibration, the donor solution consisting of 1 mL of 2 (FIG. 4a) or 4% Tetracaine HCL (FIG. 4B; Sigma) in PBS was added, and the present invention was suspended 3 mm above the surface of the donor fluid (i.e. 8 mm above the epidermal surface). The passive diffusion cells received the same donor drug concentration and were covered with parafilm only, i.e. no material of the present invention was applied. The administration period was 0-1 hr. Samples of the receptor solution were removed and replaced with fresh buffer over a 60 minute period. All samples were analysed for Tetracaine hydrochloride content by spectrophotometric detection (absorbance at 229 nm). The cumulative amount of Tetracaine hydrochloride in the receptor compartment versus time was plotted for both experiments. After the diffusion experiment the skin, still fixed in the diffusion chamber, was stained with standard HE dye. The diffusion area was investigated under a microscope for the occurrence of damage to the skin. Data derived from epidermis with low skin integrity was excluded from analysis and graphical depiction.
FIG. 5 is a plot of the substance Sumatriptan through excised piglet ear epidermis in an in vitro Franz Cell diffusion study. […] All samples were analysed for Sumatriptan content by spectrophotometric detection (absorbance at 285 nm). […]

delivery through human skin in vivo with the present invention compared with passive diffusion (blood perfusion by Laser Doppler) ([1]; 5 mmolar in PBS, 5 minutes application on volar forearm, perfusion monitored 30 minutes, FIG. 7): effective at enhanced delivery
diffusion with 480 gauss / 300 poles per meter versus 120 gauss / 500 poles per meter device ([1]; 2 milli-molar, human forearm skin in vivo, FIG. 8): similar
Compound: COC(=O)c1cccnc1 [Methyl Nicotinate]

diffusion through excised epidermis under the influence of the present invention compared to passive diffusion ([2]; Sumatriptan succinate 2 mg/ml donor, 0-30 min, FIG. 5): enhanced diffusion
Compound: CNS(=O)(=O)Cc1ccc2[nH]cc(CCN(C)C)c2c1 [Sumatriptan]

diffusion through excised epidermis under the influence of the present invention compared to passive diffusion ([2]; 2% Tetracaine HCL in PBS donor, 0-1 hr, magnetic device suspended 8 mm above epidermal surface, FIG. 4A): enhanced diffusion
diffusion through excised epidermis under the influence of the present invention compared to passive diffusion ([2]; 4% Tetracaine HCL in PBS donor, 0-1 hr, magnetic device suspended 8 mm above epidermal surface, FIG. 4B): enhanced diffusion
Compound: CCCCNc1ccc(C(=O)OCCN(C)C)cc1 [Tetracaine]
